Laboratory results taken from US20220098149A1, “METHOD FOR SYNTHESIS OF 9-CIS-BETA-CAROTENE AND FORMULATIONS THEREOF” (Ramot at Tel-Aviv University Ltd., priority 2016, published 2022).

Assay: Initial stability tests of synthetic/purified 9CBC
Format: physicochemical

CC1=C(/C=C/C(C)=C\C=C\C(C)=C\C=C\C=C(C)\C=C\C=C(C)\C=C\C2=C(C)CCCC2(C)C)C(C)(C)CCC1 [9CBC, 9-cis-β-carotene]
Time to full decomposition (sensitive to oxygen and UV degradation): less than 24 hours
Stability of purified 9CBC (under vacuum or nitrogen flushing): unstable
